Experiment: xn = mol fraction of the nth substance listed
Conditions: Fluid (supercritical or subcritical phases), vibrating tube

CCCCCO [pentan-1-ol] + O=C=O
Conditions	mass density [kg/m3]
332.96 K, 13004 kPa, x2 = 0.0816	798.35
332.96 K, 13052 kPa, x2 = 0.7274	804
332.96 K, 14008 kPa, x2 = 0.7274	808.02
332.96 K, 14029 kPa, x2 = 0.0816	799.18
332.96 K, 14991 kPa, x2 = 0.0816	799.97
332.96 K, 15033 kPa, x2 = 0.7274	812.1
332.96 K, 16004 kPa, x2 = 0.0816	800.75
332.96 K, 16033 kPa, x2 = 0.7274	815.82
332.96 K, 17014 kPa, x2 = 0.0816	801.55
332.96 K, 17034 kPa, x2 = 0.7274	819.37
332.96 K, 17988 kPa, x2 = 0.7274	822.59
332.96 K, 18018 kPa, x2 = 0.0816	802.33
332.96 K, 19024 kPa, x2 = 0.0816	803.1
332.96 K, 19059 kPa, x2 = 0.7274	826.03
332.96 K, 19981 kPa, x2 = 0.0816	803.83
332.96 K, 20008 kPa, x2 = 0.7274	828.96
332.96 K, 20999 kPa, x2 = 0.7274	831.94
332.96 K, 21024 kPa, x2 = 0.0816	804.62
332.96 K, 22023 kPa, x2 = 0.7274	834.87
332.96 K, 22057 kPa, x2 = 0.0816	805.42
332.96 K, 23004 kPa, x2 = 0.7274	837.6
332.96 K, 23012 kPa, x2 = 0.0816	806.12
332.96 K, 23961 kPa, x2 = 0.7274	840.19
332.96 K, 24007 kPa, x2 = 0.0816	806.87
332.96 K, 25043 kPa, x2 = 0.0816	807.63
333.01 K, 7029 kPa, x2 = 0.1347	794.28
333.01 K, 8022 kPa, x2 = 0.1347	795.19
333.01 K, 9011 kPa, x2 = 0.1347	796.07
333.01 K, 10005 kPa, x2 = 0.1347	796.96
333.01 K, 11019 kPa, x2 = 0.1347	797.85
333.01 K, 11162 kPa, x2 = 0.6054	813.27
333.01 K, 12017 kPa, x2 = 0.1347	798.71
333.01 K, 12048 kPa, x2 = 0.6054	815.29
333.01 K, 13025 kPa, x2 = 0.1347	799.58
333.01 K, 13037 kPa, x2 = 0.6054	817.51
333.01 K, 14019 kPa, x2 = 0.1347	800.43
333.01 K, 14041 kPa, x2 = 0.6054	819.75
333.01 K, 15000 kPa, x2 = 0.1347	801.26
333.01 K, 15073 kPa, x2 = 0.6054	822.01
333.01 K, 16013 kPa, x2 = 0.1347	802.1
333.01 K, 16020 kPa, x2 = 0.6054	824.01
333.01 K, 17014 kPa, x2 = 0.1347	802.91
333.01 K, 17032 kPa, x2 = 0.6054	826.08
333.01 K, 18011 kPa, x2 = 0.1347	803.75
333.01 K, 18043 kPa, x2 = 0.6054	828.09
333.01 K, 19014 kPa, x2 = 0.1347	804.55
333.01 K, 19023 kPa, x2 = 0.6054	830
333.01 K, 20028 kPa, x2 = 0.6054	831.92
333.01 K, 20029 kPa, x2 = 0.1347	805.36
333.01 K, 21007 kPa, x2 = 0.1347	806.13
333.01 K, 21051 kPa, x2 = 0.6054	833.82
333.01 K, 22021 kPa, x2 = 0.1347	806.92
333.01 K, 22023 kPa, x2 = 0.6054	835.61
333.01 K, 23026 kPa, x2 = 0.1347	807.74
333.01 K, 23040 kPa, x2 = 0.6054	837.43
333.01 K, 24005 kPa, x2 = 0.1347	808.5
333.01 K, 24066 kPa, x2 = 0.6054	839.22
333.01 K, 25039 kPa, x2 = 0.6054	840.93
333.01 K, 25049 kPa, x2 = 0.1347	809.32
342.76 K, 505 kPa, x2 = 0	776.31
342.76 K, 997 kPa, x2 = 0	776.77
342.76 K, 1995 kPa, x2 = 0	777.69
342.76 K, 3011 kPa, x2 = 0	778.59
342.76 K, 4012 kPa, x2 = 0	779.47
342.76 K, 5011 kPa, x2 = 0	780.34
342.76 K, 6011 kPa, x2 = 0	781.22
342.76 K, 7003 kPa, x2 = 0	782.03
342.76 K, 8015 kPa, x2 = 0	782.91
342.76 K, 9000 kPa, x2 = 0	783.73
342.76 K, 10019 kPa, x2 = 0	784.58
342.76 K, 11020 kPa, x2 = 0	785.4
342.76 K, 12002 kPa, x2 = 0	786.2
342.76 K, 13016 kPa, x2 = 0	787.02
342.76 K, 14024 kPa, x2 = 0	787.81
342.76 K, 15002 kPa, x2 = 0	788.59
342.76 K, 16007 kPa, x2 = 0	789.36
342.76 K, 17037 kPa, x2 = 0	790.15
342.76 K, 17988 kPa, x2 = 0	790.87
342.76 K, 19037 kPa, x2 = 0	791.66
342.76 K, 20003 kPa, x2 = 0	792.38
342.76 K, 21015 kPa, x2 = 0	793.14
342.76 K, 22019 kPa, x2 = 0	793.88
342.76 K, 23039 kPa, x2 = 0	794.62
342.76 K, 24027 kPa, x2 = 0	795.36
342.76 K, 25028 kPa, x2 = 0	796.1
342.84 K, 15024 kPa, x2 = 0.9757	576.16
342.84 K, 16006 kPa, x2 = 0.9757	609.2
342.84 K, 17033 kPa, x2 = 0.9757	637.26
342.84 K, 18023 kPa, x2 = 0.9757	659.89
342.84 K, 19028 kPa, x2 = 0.9757	679.62
342.84 K, 20027 kPa, x2 = 0.9757	696.58
342.84 K, 21039 kPa, x2 = 0.9757	711.98
342.84 K, 22011 kPa, x2 = 0.9757	725.1
342.84 K, 23016 kPa, x2 = 0.9757	737.54
342.87 K, 8048 kPa, x2 = 0.3624	796.26
342.87 K, 9023 kPa, x2 = 0.3624	797.49
342.87 K, 10006 kPa, x2 = 0.4651	797.4
342.87 K, 10022 kPa, x2 = 0.3624	798.77
342.87 K, 11004 kPa, x2 = 0.3624	799.97
342.87 K, 11022 kPa, x2 = 0.4651	799.24
342.87 K, 11991 kPa, x2 = 0.4651	801.02
342.87 K, 12013 kPa, x2 = 0.3624	801.19
342.87 K, 13001 kPa, x2 = 0.4651	802.82
342.87 K, 13035 kPa, x2 = 0.3624	802.37
342.87 K, 13990 kPa, x2 = 0.3624	803.48
342.87 K, 13990 kPa, x2 = 0.4651	804.53
342.87 K, 14011 kPa, x2 = 0.7274	784.26
342.87 K, 14992 kPa, x2 = 0.7274	789
342.87 K, 15018 kPa, x2 = 0.3624	804.64
342.87 K, 15036 kPa, x2 = 0.4651	806.31
342.87 K, 16009 kPa, x2 = 0.3624	805.73
342.87 K, 16014 kPa, x2 = 0.4651	807.95
342.87 K, 16025 kPa, x2 = 0.7274	793.59
342.87 K, 17000 kPa, x2 = 0.3624	806.82
342.87 K, 17004 kPa, x2 = 0.4651	809.55
342.87 K, 17006 kPa, x2 = 0.7274	797.68
342.87 K, 18005 kPa, x2 = 0.7274	801.59
342.87 K, 18017 kPa, x2 = 0.4651	811.18
342.87 K, 18021 kPa, x2 = 0.3624	807.94
342.87 K, 19019 kPa, x2 = 0.4651	812.75
342.87 K, 19032 kPa, x2 = 0.7274	805.44
342.87 K, 19036 kPa, x2 = 0.3624	809.03
342.87 K, 19983 kPa, x2 = 0.7274	808.81
342.87 K, 20012 kPa, x2 = 0.3624	810.06
